Publication PMC3697084 (Methods in enzymology, 2010)

Target: T1, human red cone opsin (Homo sapiens, UniProt P04000)
T1 sequence (P04000 1-364): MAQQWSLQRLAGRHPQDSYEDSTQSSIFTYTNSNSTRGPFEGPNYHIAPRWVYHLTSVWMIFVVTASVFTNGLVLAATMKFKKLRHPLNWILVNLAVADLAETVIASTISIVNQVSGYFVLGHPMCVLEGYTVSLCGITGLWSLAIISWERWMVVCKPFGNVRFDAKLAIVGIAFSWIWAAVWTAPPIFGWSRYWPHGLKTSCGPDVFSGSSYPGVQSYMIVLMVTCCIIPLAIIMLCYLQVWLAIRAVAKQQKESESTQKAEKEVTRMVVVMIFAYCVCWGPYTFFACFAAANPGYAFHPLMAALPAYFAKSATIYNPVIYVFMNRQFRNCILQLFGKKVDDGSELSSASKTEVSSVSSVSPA
Experiment: radioactive GTPγS filter binding, transducin activation
Format: biochemical
Settings: COS-1 membranes, bovine rod transducin, pH 6.4

Compound: CC(=O)/C=C/C1=C(C)CCCC1(C)C [β-ionone]
- inverse agonist: these compounds were found to be inverse agonists to the red cone opsin
